ChEMBL document CHEMBL3580566, “Identification of 2-[4-[(4-Methoxyphenyl)methoxy]-phenyl]acetonitrile and Derivatives as Potent Oct3/4 Inducers” (2015)
The source made the active and inactive calls. The calls are words filed in the database; no cut-off is given here.

Assays:
[1] = target: POU domain, class 5, transcription factor 1 (Homo sapiens) (UniProt Q01860); assay: Activation of human Oct3/4 in HEK293 cells transfected with firefly luciferase gene assessed as luciferase signal by luminometer plate reader relative to DMSO control; format: cell-based
[2] = target: POU domain, class 5, transcription factor 1 (Homo sapiens) (UniProt Q01860); assay: Activation of human Oct3/4 in HEK293 cells transfected with firefly luciferase gene assessed as relative luciferase activity after 48 to 72 hrs by luminometer plate reader relative to DMSO control; format: cell-based
[3] = target: POU domain, class 5, transcription factor 1 (Homo sapiens) (UniProt Q01860); assay: Activation of human Oct3/4 in HEK293 cells transfected with firefly luciferase gene assessed as relative luciferase activity at 5 uM after 48 hrs by luminometer plate reader relative to DMSO control; format: cell-based
[4] = target: POU domain, class 5, transcription factor 1 (Homo sapiens) (UniProt Q01860); assay: Activation of human Oct3/4 in HEK293 cells transfected with firefly luciferase gene assessed as relative luciferase activity at 5 uM after 72 hrs by luminometer plate reader relative to DMSO control; format: cell-based
[5] = target: POU domain, class 5, transcription factor 1 (Homo sapiens) (UniProt Q01860); assay: Activation of human Oct3/4 in HEK293 cells transfected with firefly luciferase gene assessed as relative luciferase activity at 5 uM by luminometer plate reader relative to DMSO control; format: cell-based; conditions: TDE = time-dependent effect
HEK293 [6] = assay: Induction of human Oct3/4 expression in HEK293 cells transfected with firefly luciferase gene assessed as increase in mRNA level at 10 uM after 72 hrs by qRT-PCT analysis; format: functional
HEK293 [7] = assay: Induction of human Oct3/4 expression in HEK293 cells transfected with firefly luciferase gene assessed as increase in mRNA level at 20 uM after 72 hrs by qRT-PCT analysis; format: functional
[8] = target: POU domain, class 5, transcription factor 1 (Homo sapiens) (UniProt Q01860); assay: Activation of human Oct3/4 in NCCIT cells transfected with firefly luciferase gene assessed as relative luciferase activity after 72 hrs by luminometer plate reader relative to DMSO control; format: cell-based
HEK293 [9] = assay: Induction of human Oct3/4 protein expression in HEK293 cells assessed as increase in protein expression at 6 uM after 48 hrs by immunoblotting analysis relative to DMSO control; format: functional, cell-based
HEK293 [10] = assay: Induction of human Oct3/4 protein expression in HEK293 cells assessed as increase in protein expression after 48 hrs by immunoblotting analysis relative to DMSO control; format: functional, cell-based
HEK293 [11] = assay: Induction of human Sox2 protein expression in HEK293 cells assessed as increase in protein expression at 0.5 to 20 uM after 48 hrs by immunoblotting analysis relative to DMSO control; format: functional, cell-based
HEK293 [12] = assay: Induction of human Nanog protein expression in HEK293 cells assessed as increase in protein expression at 0.5 to 20 uM after 48 hrs by immunoblotting analysis relative to DMSO control; format: functional, cell-based
HEK293 [13] = assay: Induction of human Oct3/4 protein expression in HEK293 cells assessed as increase in protein expression at 10 uM after 24 hrs by immunoblotting analysis relative to DMSO control; format: functional, cell-based
HEK293 [14] = assay: Induction of human Sox2 protein expression in HEK293 cells assessed as increase in protein expression at 10 uM after 24 hrs by immunoblotting analysis relative to DMSO control; format: functional, cell-based
HEK293 [15] = assay: Induction of human Sox2 protein expression in HEK293 cells assessed as increase in protein expression at 10 uM after 96 hrs by immunoblotting analysis relative to DMSO control; format: functional, cell-based
HEK293 [16] = assay: Induction of human Sox2 protein expression in HEK293 cells assessed as increase in protein expression at 10 uM after 48 hrs by immunoblotting analysis relative to DMSO control; format: functional, cell-based
HEK293 [17] = assay: Induction of human Oct3/4 protein expression in HEK293 cells assessed as increase in protein expression at 10 uM after 48 hrs by immunoblotting analysis relative to DMSO control; format: functional, cell-based
HEK293 [18] = assay: Induction of human Oct3/4 protein expression in HEK293 cells assessed as increase in protein expression at 10 uM after 96 hrs by immunoblotting analysis relative to DMSO control; format: functional, cell-based
Fibroblast [19] = assay: Induction of human Oct3/4 protein expression in human adult primary fibroblasts assessed as increase in protein expression at 10 uM after 72 hrs by immunoblotting analysis relative to control; format: functional, cell-based
HFF = assay: Induction of human Oct3/4 protein expression in human neonatal foreskin fibroblasts assessed as increase in protein expression at 10 uM after 72 hrs by immunoblotting analysis relative to control; format: functional, cell-based
[20] = target: POU domain, class 5, transcription factor 1 (Homo sapiens) (UniProt Q01860); assay: Activation of human Oct3/4 in HEK293 cells transfected with firefly luciferase gene assessed as relative luciferase activity after 72 hrs by luminometer plate reader relative to DMSO control; format: cell-based
[21] = target: Homeobox protein NANOG (Homo sapiens) (UniProt Q9H9S0); assay: Activation of human Nanog in NCCIT cells transfected with firefly luciferase gene assessed as relative luciferase activity up to 72 hrs by luminometer plate reader relative to DMSO control; format: cell-based
NCCIT [22] = assay: Induction of Oct3/4 accumulation in human NCCIT cells at 10 uM after 48 hrs by immunolotting analysis; format: functional, cell-based
HeLa [23] = assay: Induction of Oct3/4 accumulation in human HeLa cells at 10 uM after 48 hrs by immunolotting analysis; format: functional, cell-based
NCCIT [24] = assay: Induction of Nanog accumulation in human NCCIT cells at 10 uM after 48 hrs by immunolotting analysis; format: functional, cell-based
HeLa [25] = assay: Induction of Nanog accumulation in human HeLa cells at 10 uM after 48 hrs by immunolotting analysis; format: functional, cell-based
Fibroblast [26] = assay: Induction of human Oct3/4 protein expression in human adult primary fibroblasts assessed as increase in protein expression at 20 uM after 72 hrs by immunoblotting analysis relative to control; format: functional, cell-based
Fibroblast [27] = assay: Induction of human Lin28 protein expression in human adult primary fibroblasts assessed as increase in protein expression at 20 uM after 72 hrs by immunoblotting analysis relative to control; format: functional, cell-based
Fibroblast [28] = assay: Induction of human Sox2 protein expression in human adult primary fibroblasts assessed as increase in protein expression at 20 uM after 72 hrs by immunoblotting analysis relative to control; format: functional, cell-based
Fibroblast [29] = assay: Induction of human Nanog protein expression in human adult primary fibroblasts assessed as increase in protein expression at 20 uM after 72 hrs by immunoblotting analysis relative to control; format: functional, cell-based
[30] = target: POU domain, class 5, transcription factor 1 (Homo sapiens) (UniProt Q01860); assay: Activation of human Oct3/4 in human adult primary fibroblasts at 20 uM by immunoblotting analysis relative to control; conditions: TDE = time-dependent effect
Fibroblast [31] = assay: Induction of human Oct3/4 gene expression in human adult primary fibroblasts assessed as increase in mRNA level at 20 uM after 48 hrs by qRT-PCR analysis relative to control; format: functional
Fibroblast [32] = assay: Induction of human Nanog gene expression in human adult primary fibroblasts assessed as increase in mRNA level at 20 uM after 48 hrs by qRT-PCR analysis relative to control; format: functional
Fibroblast [33] = assay: Induction of human Klf4 gene expression in human adult primary fibroblasts assessed as increase in mRNA level at 20 uM after 48 hrs by qRT-PCR analysis relative to control; format: functional
Fibroblast [34] = assay: Induction of human Rex1 gene expression in human adult primary fibroblasts assessed as increase in mRNA level at 20 uM after 48 hrs by qRT-PCR analysis relative to control; format: functional
Fibroblast [35] = assay: Induction of human c-Myc gene expression in human adult primary fibroblasts assessed as increase in mRNA level at 20 uM after 48 hrs by qRT-PCR analysis relative to control; format: functional
Fibroblast [36] = assay: Induction of human E-Cadherin level in human adult primary fibroblasts assessed as increase in protein level at 20 uM after 72 hrs by FACS analysis relative to control; format: functional, cell-based
Fibroblast [37] = assay: Induction of human Nanog protein expression in human adult primary fibroblasts assessed as increase in protein level at 20 uM after 5 days by Hoechst 33258 staining based immunostaining relative to control; format: functional, cell-based
Fibroblast [38] = assay: Induction of human KLF4 protein expression in human adult primary fibroblasts assessed as increase in protein level at 20 uM after 5 days by Hoechst 33258 staining based immunostaining relative to control; format: functional, cell-based
Fibroblast [39] = assay: Induction of human Oct3/4 protein expression in human adult primary fibroblasts assessed as increase in protein level at 20 uM after 5 days by Hoechst 33258 staining based immunostaining relative to control; format: functional, cell-based
Fibroblast [40] = assay: Induction of human Sox2 protein expression in human adult primary fibroblasts assessed as increase in protein level at 20 uM after 5 days by Hoechst 33258 staining based immunostaining relative to control; format: functional, cell-based
Fibroblast [41] = assay: Induction of human Oct3/4 and Sox2 protein expression in human adult primary fibroblasts assessed as positive cells normalized to total number of cells; format: functional, cell-based
Fibroblast [42] = assay: Induction of human Oct3/4 protein expression in human adult primary fibroblasts assessed as positive cells normalized to total number of cells; format: functional
Fibroblast [43] = assay: Induction of human Sox2 protein expression in human adult primary fibroblasts assessed as positive cells normalized to total number of cells; format: functional
Fibroblast [44] = assay: Induction of cell cycle arrest in human adult primary fibroblasts assessed as accumulation of cells at G1 phase at 20 uM after 5 days by propidium iodide staining assay (reference value: 74%); format: functional
Fibroblast [45] = assay: Induction of cell cycle arrest in human adult primary fibroblasts assessed as accumulation of cells at S phase at 20 uM after 5 days by propidium iodide staining assay (reference value: 2%); format: functional

POU domain, class 5, transcription factor 1 (Homo sapiens), sequence (Q01860 whole entry, the tested form may be a part): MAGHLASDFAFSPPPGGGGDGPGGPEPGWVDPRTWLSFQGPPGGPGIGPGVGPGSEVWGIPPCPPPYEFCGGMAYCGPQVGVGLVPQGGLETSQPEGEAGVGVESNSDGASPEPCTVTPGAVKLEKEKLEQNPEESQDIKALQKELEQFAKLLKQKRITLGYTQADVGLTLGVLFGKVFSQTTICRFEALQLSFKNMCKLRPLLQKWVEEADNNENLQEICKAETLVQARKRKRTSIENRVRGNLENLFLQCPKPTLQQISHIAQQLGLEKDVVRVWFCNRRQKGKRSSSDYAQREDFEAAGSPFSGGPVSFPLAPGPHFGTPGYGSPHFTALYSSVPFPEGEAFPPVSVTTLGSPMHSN
Homeobox protein NANOG (Homo sapiens), sequence (Q9H9S0 whole entry): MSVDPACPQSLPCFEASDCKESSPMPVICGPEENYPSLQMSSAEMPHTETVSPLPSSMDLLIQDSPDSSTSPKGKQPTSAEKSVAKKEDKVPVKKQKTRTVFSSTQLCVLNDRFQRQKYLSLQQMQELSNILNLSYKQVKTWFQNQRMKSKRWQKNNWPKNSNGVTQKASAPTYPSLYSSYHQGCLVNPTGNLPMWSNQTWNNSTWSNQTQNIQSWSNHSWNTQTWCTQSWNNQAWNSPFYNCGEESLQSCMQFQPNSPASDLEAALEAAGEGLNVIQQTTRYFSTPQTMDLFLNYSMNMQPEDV

## COc1ccc(COc2ccc(CC#N)cc2)cc1
[1]
  fold change (FC): 5
[2]
  Activity: Dose-dependent effect
[3]
  fold change (FC): 2
[4]
  fold change (FC): 3
[5]
  Activity: tde
HEK293 [6]
  fold change (FC): 2.5
HEK293 [7]
  fold change (FC): 4
[8]
  RLU: 2.68
HEK293 [9]
  Activity: Active
HEK293 [10]
  Activity: Dose-dependent effect
HEK293 [11]
  Activity: Active
HEK293 [12]
  Activity: Active
HEK293 [13]
  Activity: Active
HEK293 [14]
  Activity: Active
HEK293 [15]
  Activity: Active
HEK293 [16]
  Activity: Active
HEK293 [17]
  Activity: Active
HEK293 [18]
  Activity: Active
Fibroblast [19]
  Activity: Active
HFF
  Activity: Active
[20]
  RLU: 3.85
[21]
  Activity: Active

## N#CCc1ccc(OCc2ccc(C#N)cc2)cc1
[8]
  RLU: 1.88
[20]
  RLU: 1.79

## Cc1ccc(COc2ccc(CC#N)cc2)cc1
[8]
  RLU: 2.26
[20]
  RLU: 2

## N#CCc1ccc(OCc2ccc([N+](=O)[O-])cc2)cc1
[8]
  RLU: 2.61
[20]
  RLU: 4.02

## N#Cc1ccc(OCc2ccc(F)cc2)cc1
[8]
  RLU: 2.26
[20]
  RLU: 5.83

## N#Cc1ccc(OCc2ccc(OC(F)(F)F)cc2)cc1
[8]
  RLU: 1.5
[20]
  RLU: 3.4

## N#Cc1ccc(OCc2ccc([N+](=O)[O-])cc2)cc1
[8]
  RLU: 1.08
[20]
  RLU: 2.65

## N#CCc1ccc(OCc2ccc(F)cc2)cc1
[8]
  RLU: 4.02
[20]
  RLU: 6.58
[21]
  Activity: Active
NCCIT [22]
  Activity: Active
HeLa [23]
  Activity: Active
NCCIT [24]
  Activity: Active
HeLa [25]
  Activity: Active
Fibroblast [26]
  Activity: Active
Fibroblast [27]
  Activity: Active
Fibroblast [28]
  Activity: Active
Fibroblast [29]
  Activity: Active
[30]
  Activity: tde
Fibroblast [31]
  fold change (FC): 7
Fibroblast [32]
  fold change (FC): 12
Fibroblast [33]
  fold change (FC): 6
Fibroblast [34]
  fold change (FC): 1.3
Fibroblast [35]
  fold change (FC): 2
Fibroblast [36]
  Activity: Active
Fibroblast [37]
  Activity: Active
Fibroblast [38]
  Activity: Active
Fibroblast [39]
  Activity: Active
Fibroblast [40]
  Activity: Active
Fibroblast [41]
  Activity: Active
Fibroblast [42]
  Activity: 6%
Fibroblast [43]
  Activity: 9%
Fibroblast [44]
  Activity: 66%
Fibroblast [45]
  Activity: 7%

## COc1ccc(COc2ccc(C#N)cc2)cc1
[8]
  RLU: 0.99
[20]
  RLU: 3

## N#CCc1ccc(OCc2ccc(-c3ccccc3)cc2)cc1
[8]
  RLU: 0.73
[20]
  RLU: 0.84

## N#CCc1ccc(OCc2ccc(OC(F)(F)F)cc2)cc1
[8]
  RLU: 2.14
[20]
  RLU: 4.9
